# Active and inactive are the calls of the source. No cut-off for these calls is given here.
# Legend:
# [1] = test system: Mus musculus; assay: Neurotoxicity in ip dosed albino CF1 mouse assessed as minimum dose required to cause toxicity after 0.5 hrs by rotarod test; format: organism-based; conditions: in vivo
# [2] = test system: Mus musculus; assay: Neurotoxicity in albino CF1 mouse assessed as minimal motor impairment at 30 mg/kg, ip after 0.5 hrs by rotarod test; format: toxicity, organism-based; design: dose 30 mg/kg, route intraperitoneal; conditions: in vivo
# [3] = test system: Mus musculus; assay: Anticonvulsant activity against subcutaneous metrazole-induced seizures in ip dosed albino CF1 mouse assessed as minimum effective dose after 4 hrs; format: functional; conditions: albino CF1, 4 h, read-out: MED
# [4] = test system: Mus musculus; assay: Neurotoxicity in albino CF1 mouse assessed as minimal motor impairment at 30 mg/kg, ip after 4 hrs by rotarod test; format: toxicity, organism-based; design: dose 30 mg/kg, route intraperitoneal; conditions: in vivo
# [5] = test system: Mus musculus; assay: Neurotoxicity in albino CF1 mouse assessed as minimal motor impairment at 100 mg/kg, ip after 4 hrs by rotarod test; format: toxicity, organism-based; design: dose 100 mg/kg, route intraperitoneal; conditions: in vivo
# [6] = test system: Mus musculus; assay: Neurotoxicity in albino CF1 mouse assessed as minimal motor impairment at 300 mg/kg, ip after 0.5 hrs by rotarod test; format: toxicity, organism-based; design: dose 300 mg/kg, route intraperitoneal; conditions: in vivo
# [7] = test system: Mus musculus; assay: Neurotoxicity in albino CF1 mouse assessed as minimal motor impairment at 300 mg/kg, ip after 4 hrs by rotarod test; format: toxicity, organism-based; design: dose 300 mg/kg, route intraperitoneal; conditions: in vivo
# [8] = test system: Mus musculus; assay: Anticonvulsant activity in albino CF1 mouse assessed as protection against maximal electroshock-induced seizures at 300 mg/kg, ip after 0.5 hrs; format: functional, organism-based; design: dose 300 mg/kg
# [9] = test system: Mus musculus; assay: Anticonvulsant activity in albino CF1 mouse assessed as protection against maximal electroshock-induced seizures at 300 mg/kg, ip after 4 hrs; format: functional, organism-based; design: dose 300 mg/kg
# [10] = test system: Mus musculus; assay: Anticonvulsant activity in albino CF1 mouse assessed as protection against subcutaneous metrazole-induced seizures at 30 mg/kg, ip after 0.5 hrs; format: functional, organism-based; design: dose 30 mg/kg
# [11] = test system: Mus musculus; assay: Anticonvulsant activity in albino CF1 mouse assessed as protection against subcutaneous metrazole-induced seizures at 30 mg/kg, ip after 4 hrs; format: functional, organism-based; design: dose 30 mg/kg
# [12] = test system: Mus musculus; assay: Anticonvulsant activity in albino CF1 mouse assessed as protection against subcutaneous metrazole-induced seizures at 100 mg/kg, ip after 0.5 hrs; format: functional, organism-based; design: dose 100 mg/kg
# [13] = test system: Mus musculus; assay: Anticonvulsant activity in albino CF1 mouse assessed as protection against subcutaneous metrazole-induced seizures at 100 mg/kg, ip after 4 hrs; format: functional, organism-based; design: dose 100 mg/kg
# [14] = test system: Mus musculus; assay: Anticonvulsant activity in albino CF1 mouse assessed as protection against subcutaneous metrazole-induced seizures at 300 mg/kg, ip after 0.5 hrs; format: functional, organism-based; design: dose 300 mg/kg
# [15] = test system: Mus musculus; assay: Anticonvulsant activity in albino CF1 mouse assessed as protection against maximal electroshock-induced seizures at 30 mg/kg, ip after 0.5 hrs; format: functional, organism-based; design: dose 30 mg/kg
# [16] = test system: Mus musculus; assay: Anticonvulsant activity in albino CF1 mouse assessed as protection against maximal electroshock-induced seizures at 30 mg/kg, ip after 4 hrs; format: functional, organism-based; design: dose 30 mg/kg
# [17] = test system: Mus musculus; assay: Neurotoxicity in ip dosed albino CF1 mouse assessed as minimum dose required to cause toxicity after 4 hrs by rotarod test; format: organism-based; conditions: in vivo
# [18] = test system: Mus musculus; assay: Anticonvulsant activity against maximal electroshock-induced seizures in ip dosed albino CF1 mouse assessed as minimum effective dose after 0.5 hrs; format: functional; conditions: read-out: MED
# [19] = test system: Mus musculus; assay: Anticonvulsant activity against maximal electroshock-induced seizures in ip dosed albino CF1 mouse assessed as minimum effective dose after 4 hrs; format: functional; conditions: read-out: MED
# [20] = test system: Mus musculus; assay: Anticonvulsant activity against subcutaneous metrazole-induced seizures in ip dosed albino CF1 mouse assessed as minimum effective dose after 0.5 hrs; format: functional; conditions: albino CF1, 0.5 h, read-out: MED
# [21] = test system: Mus musculus; assay: Neurotoxicity in albino CF1 mouse assessed as minimal motor impairment at 30 to 300 mg/kg, ip after 0.5 hrs by rotarod test; conditions: in vivo
# [22] = test system: Mus musculus; assay: Anticonvulsant activity in albino CF1 mouse assessed as protection against maximal electroshock-induced seizures at 100 mg/kg, ip after 0.5 hrs; format: functional, organism-based; design: dose 100 mg/kg
# [23] = test system: Mus musculus; assay: Anticonvulsant activity in albino CF1 mouse assessed as protection against maximal electroshock-induced seizures at 100 mg/kg, ip after 4 hrs; format: functional, organism-based; design: dose 100 mg/kg
# [24] = test system: Mus musculus; assay: Anticonvulsant activity in albino CF1 mouse assessed as protection against subcutaneous metrazole-induced seizures at 300 mg/kg, ip after 4 hrs; format: functional, organism-based; design: dose 300 mg/kg
# [25] = test system: Mus musculus; assay: Neurotoxicity in albino CF1 mouse assessed as minimal motor impairment at 30 to 300 mg/kg, po after 4 hrs by rotarod test; format: toxicity, organism-based; design: dose 30-300 mg/kg, route oral; conditions: in vivo
# [26] = test system: Mus musculus; assay: Neurotoxicity in albino CF1 mouse assessed as minimal motor impairment at 100 mg/kg, ip after 0.5 hrs by rotarod test; format: toxicity, organism-based; design: dose 100 mg/kg, route intraperitoneal; conditions: in vivo
Structure (SMILES),MED [1],Activity [2],minimal effective dose [3],Activity [4],Activity [5],Activity [7],Activity [8],Activity [9],Activity [10],Activity [11],Activity [12],Activity [13],Activity [15],Activity [16],MED [17],minimal effective dose [18],minimal effective dose [19],minimal effective dose [20],Activity [21],Activity [25],other results
c1ccc(-c2c[nH]c(-c3ccncc3)n2)cc1,100 mg/kg,Non-toxic,> 300 mg/kg,Non-toxic,Non-toxic,Toxic,Active,Active,inactive,inactive,inactive,inactive,inactive,inactive,100 mg/kg,100 mg/kg,100 mg/kg,> 300 mg/kg,Non-toxic,,Activity [6]: Toxic; Activity [14]: inactive
c1ccc(-c2c[nH]c(-c3ccsc3)n2)cc1,100 mg/kg,Non-toxic,> 300 mg/kg,Non-toxic,Non-toxic,,Active,,inactive,inactive,inactive,inactive,inactive,inactive,> 300 mg/kg,100 mg/kg,> 300 mg/kg,> 300 mg/kg,Non-toxic,Non-toxic,Activity [22]: Active; Activity [23]: inactive; Activity [14]: inactive; Activity [24]: inactive
c1ccc(-c2c[nH]c(C3CCCCC3)n2)cc1,100 mg/kg,Non-toxic,> 300 mg/kg,Non-toxic,Non-toxic,Non-toxic,,inactive,inactive,inactive,,inactive,inactive,inactive,> 300 mg/kg,> 300 mg/kg,> 300 mg/kg,> 300 mg/kg,Non-toxic,Non-toxic,Activity [22]: inactive; Activity [23]: inactive
COc1cccc(-c2nc(-c3ccccc3)c[nH]2)c1,> 30 mg/kg,Non-toxic,> 300 mg/kg,Non-toxic,Non-toxic,Non-toxic,Active,Active,inactive,inactive,inactive,inactive,inactive,inactive,> 300 mg/kg,> 30 mg/kg,100 mg/kg,> 300 mg/kg,Non-toxic,Non-toxic,Activity [22]: Active; Activity [26]: Toxic
c1ccc(-c2c[nH]c(-c3ccoc3)n2)cc1,100 mg/kg,Non-toxic,> 300 mg/kg,Non-toxic,Non-toxic,Toxic,Active,,inactive,inactive,inactive,inactive,inactive,inactive,> 100 mg/kg,100 mg/kg,> 300 mg/kg,> 300 mg/kg,Non-toxic,Non-toxic,Activity [6]: Toxic; Activity [23]: inactive
O=[N+]([O-])c1ccc(-c2nc(-c3ccccc3)c[nH]2)cc1,> 300 mg/kg,Non-toxic,100 mg/kg,Non-toxic,Non-toxic,Non-toxic,Active,Active,inactive,inactive,inactive,inactive,inactive,inactive,> 300 mg/kg,100 mg/kg,100 mg/kg,> 300 mg/kg,Non-toxic,Non-toxic,Activity [26]: Non-toxic; Activity [6]: Non-toxic; Activity [14]: inactive
Clc1cccc(-c2nc(-c3ccccc3)c[nH]2)c1,100 mg/kg,Non-toxic,> 300 mg/kg,Non-toxic,Non-toxic,Non-toxic,Active,Active,inactive,inactive,inactive,inactive,inactive,inactive,> 300 mg/kg,100 mg/kg,100 mg/kg,100 mg/kg,Non-toxic,Non-toxic,Activity [26]: Non-toxic; Activity [23]: inactive; Activity [14]: Active; Activity [24]: inactive
c1ccc(-c2c[nH]c(-c3ccco3)n2)cc1,100 mg/kg,Non-toxic,> 300 mg/kg,Non-toxic,Non-toxic,Toxic,Active,Active,inactive,inactive,inactive,inactive,inactive,inactive,100 mg/kg,100 mg/kg,100 mg/kg,> 300 mg/kg,Non-toxic,,Activity [26]: Non-toxic; Activity [6]: Toxic; Activity [23]: inactive; Activity [14]: inactive; Activity [24]: inactive
c1ccc(-c2c[nH]c(-c3cc4ccccc4o3)n2)cc1,> 300 mg/kg,Non-toxic,> 300 mg/kg,Non-toxic,Non-toxic,,inactive,inactive,inactive,inactive,inactive,inactive,inactive,inactive,> 300 mg/kg,> 300 mg/kg,> 300 mg/kg,> 300 mg/kg,Non-toxic,Non-toxic,Activity [22]: inactive; Activity [23]: inactive; Activity [14]: inactive; Activity [24]: inactive
FC(F)(F)c1ccc(-c2c[nH]c(-c3ccccc3)n2)cc1,100 mg/kg,Non-toxic,100 mg/kg,Non-toxic,Non-toxic,Toxic,Active,,inactive,inactive,inactive,inactive,inactive,inactive,100 mg/kg,100 mg/kg,> 300 mg/kg,> 300 mg/kg,Non-toxic,Non-toxic,Activity [23]: inactive; Activity [14]: inactive; Activity [24]: Active

# From ChEMBL document CHEMBL1275354, “Anticonvulsant activity of 2,4(1H)-diarylimidazoles in mice and rats acute seizure models” (Bioorg Med Chem, 2010)
